Assay results as given in US7601850B2, “Phenyl-thiophene type vitamin D receptor modulators” (Eli Lilly and Company, priority 2002, dated 2009).
Read-outs that look alike come from different tables or passages of the source.

Tests used:
[1] = Mouse hypercalcemia assay (six day, serum ionized calcium); assay type: in vivo
Experimental: 5. The Mouse Hypercalcemia test is described in the “Assay” section of the Description, infra.
4. The Mouse Hypercalcemia Assay
The Mouse Hypercalcemia Assay is a six day hypercalcemia test for toxicity and selectivity. Acceptable test results are levels greater than 300 μg/kg/day. Preferred assay results are levels greater than 1000 μg/kg/day.
(4) Materials and Method for The Mouse Hypercalcemia Assay:
Weanling, virus-antibody-free, five to six weeks old female DBF mice (Harlan, Indianapolis, Ind.) are used for all the studies. Animals are allowed to acclimate to local vivarium conditions for 2 days. […] The animals then are divided into groups with 4-5 mice per group. Different doses of test compounds prepared in 10% Ethanol and 90% sesame oil are administered to mice orally via gavage for 6 days. 1α-25(OH)2D3 0.5 μg/kg/d was also given to one group of mice as the positive control. Serum ionized calcium is evaluated at 6 hours after the last dosing under isoflurane anesthesia by Ciba-Corning Ca++/PH Analyzer, (Model 634, Chiron Diagnostics Corp., East Walpole, Mass.). Raw data of group differences is assessed by analysis of variance (ANOVA) using Fisher's protected least significant difference (PLSD) where the significance level was P<0.05.

rat osteocalcin promoter = assay: OCN (osteocalcin) promoter assay in RG-15 (ROS 17/2.8) cells; assay type: cell-based
Method in brief: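 Rat osteoblast-like RG-15 (ROS 17/2.8) cells stably carry the rat osteocalcin promoter fused to luciferase. They were treated with compounds for 48 h in medium with 2% FBS and 0.01% DMSO. EC50 was derived from luciferase activity in cell lysates.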

KERtr cells = assay: Keratinocyte proliferation assay (BrdU incorporation); assay type: cell-based; conditions: KERtr human skin keratinocytes, 72 hr treatment, read-out: Kera. Prolif. IC50
Experimental: 6. The keratinocyte proliferation assay is described in the “Assay” section of the Description, infra.
5. The Keratinocyte Proliferation Assay
This Assay is indicative for the treatment of psoriasis.
(5) The Keratinocyte Proliferation Assay:
KERtr cells (Human skin keratinocyte transformed with a retrovirus vector, obtained from ATCC) were plated in 96-well flat-bottomed plates (3000 cells/well) in 100 µl keratinocyte serum free medium supplemented with bovine pituitary extract in the absence of EGF (Life Technologies, Rockville, Md.) and incubated at 37° C. for two days. The cells were treated with various concentrations of VDR ligands (ten-fold serial dilution from 10,000 nM to 0.1 nM in triplicate), dissolved in 100 µl keratinocyte serum free medium supplemented with bovine pituitary extract in the absence of EGF and incubated at 37° C. for 72 hr. […] Potency values (IC50) values were determined as the concentration (nM) of compound that elicited a half-maximal response.

[2] = Homo sapiens, Keratinocyte, 72 h

SMILES	Mouse Hypercal [1] [µg/kg/day]	EC50 (rat osteocalcin promoter) [nM]	EC50 (rat osteocalcin promoter; Rattus norvegicus) [nM]	further results
CCC(CC)(c1ccc(OCC(=O)C(C)(C)C)c(C)c1)c1ccc(OC[C@H](O)C(C)(C)C)c(C)c1 [EE, reference compound]	1000	–	–	–
CCCc1cc(C(CC)(CC)c2ccc(C(=O)O)s2)ccc1OCC(O)C(C)(C)C (single isomer, unassigned) [Ex. 94, 3′-[4-(2-hydroxy-3,3-dimethylbutoxy)-3-n-propylphenyl]-3′-[5-carboxy-thiophen-2-yl]pentane]	1000	4.05	–	–
CCC(CC)(c1ccc(OCC(O)C(C)(C)C)c(C)c1)c1cc(C)c(C(=O)N[C@H](C)C(=O)O)s1 (stereo partly drawn) [Ex. 67, D-2-[(5-{1-Ethyl-1-[4-(2-hydroxy-3,3-dimethyl-butoxy)-3-methyl-phenyl]-propyl}-3-methyl-thiophene-2-carbonyl)-amino]-propionic acid]	3000	19.4	–	IC50 (KERtr cells; [2]): 197 nM
CCC(CC)(c1ccc(OCC(O)CO)c(C)c1)c1ccc(OCC(O)C(C)(C)C)c(C)c1 (stereo not drawn) [BB, 3-(4-{1-Ethyl-1-[4-(2-hydroxy-3,3-dimethyl-butoxy)-3-methyl-phenyl]-10 propyl}-2-methyl-phenoxy)-propane-1,2-diol, reference compound]	–	–	–	Mouse Hypercal μg/Kg/d [1]: >=20 μg/Kg/d
CCC(CC)(c1ccc(OCC(O)C(C)(C)C)c(C)c1)c1cc(C)c(C(=O)N[C@@H](C)C(=O)O)s1 (stereo partly drawn) [Ex. 55, L-2-[(5-{1-Ethyl-1-[4-(2-hydroxy-3,3-dimethyl-butoxy)-3-methyl-phenyl]-propyl}-3-methyl-thiophene-2-carbonyl)-amino]-propionic acid]	1000	29.6	–	IC50 (KERtr cells): 0.1 nM
CCC(CC)(c1ccc(OCC(O)C(C)(C)C)c(C)c1)c1cc(C)c(C(=O)N(C)OC)s1 (single isomer, unassigned) [Ex. 43, 5-{1-Ethyl-1-[4-(2-hydroxy-3,3-dimethyl-butyoxy)-3-methyl-phenyl]-propyl}-3methyl-thiophene-2-carboxylic acid methoxy-methyl-amide]	1000	–	19.7	–
CCCc1cc(C(CC)(CC)c2ccc(C(=O)O)s2)ccc1OCC(O)C(C)(C)C (stereo not drawn) [Ex. 93, 3′-[4-(2-hydroxy-3,3-dimethylbutoxy)-3-n-propylphenyl]-3′-[5-carboxy-thiophen-2-yl]pentane]	3000	–	38.5	IC50 (KERtr cells; [2]): 178 nM
CCCc1cc(C(CC)(CC)c2ccc(C(=O)N[C@@H](C)C(=O)O)s2)ccc1OCC(C)(O)C(C)(C)C (single isomer, unassigned) [Ex. 114, d-3′-[4-(2-hydroxy-2,3,3-trimethylbutoxy)-3-n-propylphenyl]-3′-[5-(carboxy-1-ethylamino)carbonyl-thiophen-2-yl]pentane]	<300	–	0.28	–
CCc1cc(C(CC)(CC)c2ccc(C(=O)O)s2)ccc1OCC(O)C(C)(C)C (stereo not drawn) [Ex. 99, 3′-[4-(2-hydroxy-3,3-dimethylbutoxy)-3-ethylphenyl]-3′-[5-carboxy-thiophen-2-yl]pentane]	>1000	–	38.1	–
CCC(CC)(c1ccc(OCC(=O)O)c(C)c1)c1cc(C)c(CCC(O)C(C)(C)C)s1 (single isomer, unassigned) [Ex. 33A, 3′-[5-(3-hydroxy-4,4-dimethylpentyl)-4-methylthiophen-2-yl]-3′-[4-(carboxylmethoxy)-3-methylphenyl]pentane]	>9000	43.5	–	–
CCC(CC)(c1ccc(OCC(=O)Nc2nnn[nH]2)c(C)c1)c1cc(C)c(CCC(O)C(C)(C)C)s1 (single isomer, unassigned) [Ex. 34, 3′-[5-(3-hydroxy-4,4-dimethylpentyl)-4-methylthiophen-2-yl]-3-[4-(tetrazol-5-yl-aminocarbonylmethoxy)-3-methylphenyl]pentane]	3000	96.8	–	–
CCC(CC)(c1ccc(OCC(O)C(C)(C)C)c(C(C)C)c1)c1ccc(C(=O)O)s1 (single isomer, unassigned) [Ex. 98, 3′-[4-(2-hydroxy-3,3-dimethylbutoxy)-3-i-propylphenyl]-3′-[5-carboxy-thiophen-2-yl]pentane]	4000	15.8	–	–
CCC(CC)(c1ccc(OCC(O)C(C)(C)C)c(C)c1)c1cc(C)c(C(=O)N(C)OC)s1 (single isomer, unassigned) [Ex. 44, 5-{1-Ethyl-1-[4-(2-hydroxy-3,3-dimethyl-butyoxy)-3-methyl-phenyl]-propyl}-3methyl-thiophene-2-carboxylic acid methoxy-methyl-amide]	1000	30.4	–	–
CCC(CC)(c1ccc(OCC(=O)C(C)(C)C)c(C)c1)c1cc(C)c(C(=O)N(C)OC)s1 [Ex. 45, 5-{1-[4-(3,3-dimethyl-2-oxo-butyoxy)-3-methyl-phenyl]-1-ethyl-propyl}-3methyl-thiophene-2-carboxylic acid methoxy-methyl-amide]	>1500	–	41	–
CCC(CC)(c1ccc(OCC(=O)C(C)(C)C)c(C)c1)c1cc(C)c(C(=O)NCC(=O)O)s1 [Ex. 50]	>3000	–	21.6	–
CCC(CC)(c1ccc(OCC(C)(O)C(C)(C)C)c(C)c1)c1ccc(C(=O)O)s1 (single isomer, unassigned) [Ex. 104, 3′-[4-(2-hydroxy-2,3,3-trimethylbutoxy)-3-methylphenyl]-3′-[5-carboxy-thiophen-2-yl]pentane]	1000	90.9	–	–
CCC(CC)(c1ccc(OCC(C)(O)C(C)(C)C)c(C)c1)c1ccc(C(=O)O)s1 (stereo not drawn) [Ex. 103, 3′-[4-(2-hydroxy-2,3,3-trimethylbutoxy)-3-methylphenyl]-3′-[5-carboxy-thiophen-2-yl]pentane]	3000	–	102	–
CCC(CC)(c1ccc(OCC(O)C(C)(C)C)c(C(C)C)c1)c1ccc(C(=O)O)s1 (single isomer, unassigned) [Ex. 97, 3′-[4-(2-hydroxy-3,3-dimethylbutoxy)-3-i-propylphenyl]-3′-[5-carboxy-thiophen-2-yl]pentane]	3000	–	22.4	–
CCC(CC)(c1ccc(OCC(=O)C(C)(C)C)c(C)c1)c1cc(C)c(S(=O)(=O)NC(C)=O)s1 [Ex. 160, 5-{1-[4-(3,3-Dimethyl-2-oxo-butoxy)-3-methyl-phenyl]-1-ethyl-propyl}-3-methyl-thiophene-2-sulfonic acid acetyl-amide]	–	–	40.3	IC50 (KERtr cells; [2]): 1100 nM
CCc1cc(C(CC)(CC)c2ccc(S(=O)(=O)NCC(=O)O)s2)ccc1OCC(O)C(C)(C)C (stereo not drawn) [Ex. 155]	–	–	18.4	IC50 (KERtr cells; [2]): 788 nM
CCC(CC)(c1ccc(OCC(O)C(C)(C)C)c(C)c1)c1cc(C)c(C(=O)Nc2nnn[nH]2)s1 (single isomer, unassigned) [Ex. 36, 3′-[4-(2-hydroxy-3,3-dimethylbutoxy)-3-methylphenyl]-3′-[5-(tetrazol-5-yl-aminocarbonyl)-4-methylthiophen-2-yl]pentane]	2000	67.9	–	–
CCC(CC)(c1ccc(OCC(C)(O)C(C)(C)C)c(OC)c1)c1ccc(C(=O)NC(C)C(=O)O)s1 (single isomer, unassigned) [Ex. 116, d-3′-[4-(2-hydroxy-2,3,3-trimethylbutoxy)-3-methoxyphenyl]-3′-[5-(carboxy-1-ethylamino)carbonyl-thiophen-2-yl]pentane]	>3000	–	16.9	–
CCC(CC)(c1ccc(OCC(O)C(C)(C)C)c(C)c1)c1cc(C)c(C(=O)NCCS(C)(=O)=O)s1 (single isomer, unassigned) [Ex. 39, 5-[1-ethyl-1-[4-(2-hydroxy-3,3-dimethyl-butoxy)-3-methylphenyl]propyl]-3-methylthiophene-2-carboxylic acid (2-methylsulfonyl-ethyl) amide]	–	300	–	IC50 (KERtr cells; [2]): 367 nM
CCC(CC)(c1ccc(OCC(O)C(C)(C)C)c(C(C)C)c1)c1ccc(C(=O)O)s1 (stereo not drawn) [Ex. 92, 3′-[4-(2-Hydroxy-3,3-dimethylbutoxy)-3-(1-methylethyl)phenyl]-3′-[5-carboxy-thiophen-2-yl]pentane]	1000	–	75.3	–
CCC(CC)(c1ccc(OCC(O)C(C)(C)C)c(C)c1)c1cc(C)c(CS(C)(=O)=O)s1 (stereo not drawn) [Ex. 10]	–	–	51.3	IC50 (KERtr cells; [2]): 25 nM
